Test results taken from ChEMBL document CHEMBL1201862, “PubChem BioAssay data set” (2004).
Each block holds one compound with its values, some of them ahead of it. Calls of active or inactive are those of the source.

Assays:
[1] = molecular target: Alkaline phosphatase, placental type (Homo sapiens, UniProt P05187); assay: human placental alkaline phosphatase inhibition – biochemical, luminescence, confirmation (AID 1512); assay type: functional
[2] = molecular target: T1, Alkaline phosphatase, tissue-nonspecific isozyme (Homo sapiens, UniProt P05186); assay: potency against alkaline phosphatase TNAP – biochemical, luminescent, dose response, SAR follow-up (AID 1056)
T1 sequence (P05186 whole entry): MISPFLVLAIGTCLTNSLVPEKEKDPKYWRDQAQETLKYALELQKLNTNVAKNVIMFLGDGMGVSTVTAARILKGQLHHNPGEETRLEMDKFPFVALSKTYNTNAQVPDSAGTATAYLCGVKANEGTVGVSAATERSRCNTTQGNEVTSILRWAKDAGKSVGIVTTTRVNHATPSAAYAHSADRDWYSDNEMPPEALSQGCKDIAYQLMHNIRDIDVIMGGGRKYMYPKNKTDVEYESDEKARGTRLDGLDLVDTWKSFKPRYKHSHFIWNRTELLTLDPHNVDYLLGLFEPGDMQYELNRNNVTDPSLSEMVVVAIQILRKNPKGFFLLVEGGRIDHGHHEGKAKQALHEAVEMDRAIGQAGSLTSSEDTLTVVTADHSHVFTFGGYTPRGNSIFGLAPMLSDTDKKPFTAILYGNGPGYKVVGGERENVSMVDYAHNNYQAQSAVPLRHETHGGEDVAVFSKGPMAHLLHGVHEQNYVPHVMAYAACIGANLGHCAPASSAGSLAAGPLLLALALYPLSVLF

[3] = molecular target: Glyceraldehyde-3-phosphate dehydrogenase (Homo sapiens, UniProt P04406)
[4] = molecular target: Peroxisome proliferator-activated receptor gamma/Nuclear receptor coactivator 1 (Homo sapiens, UniProt P37231); assay: (§1) TR-FRET dose response biochemical High Throughput Screening assay for agonists of the steroid receptor coactivator 1 (SRC-1) recruitment by the peroxisome proliferator-activated receptor gamma (PPAR gamma): non-selective agonists. [Related pubchem assays (depositor defined):AID1300, AID1808, AID504735, AID631]; assay type: protein assay
[5] = molecular target: Peroxisome proliferator-activated receptor gamma/Nuclear receptor coactivator 3 (Homo sapiens, UniProt P37231); assay: as §1, with “3 (SRC-3)” for “1 (SRC-1)”, “assays: 1301 (Confirmation screen.), 1048 (Primary screen.)]” for “assays (depositor defined):AID1300, AID1808, AID504735, AID631]”; assay type: functional
[6] = molecular target: Peroxisome proliferator-activated receptor gamma/Nuclear receptor coactivator 2 (Homo sapiens, UniProt P37231); assay: TR-FRET dose response biochemical High Throughput Screening assay for agonists of the steroid receptor coactivator 2 (SRC-2) recruitment by the peroxisome proliferator-activated receptor gamma (PPAR gamma): non-selective agonists. [Related pubchem assays: 1297, 1032 ]; assay type: functional
[7] = molecular target: T2, Apoptotic protease-activating factor 1 (Homo sapiens, UniProt O14727); assay type: functional
T2 sequence (O14727 whole entry): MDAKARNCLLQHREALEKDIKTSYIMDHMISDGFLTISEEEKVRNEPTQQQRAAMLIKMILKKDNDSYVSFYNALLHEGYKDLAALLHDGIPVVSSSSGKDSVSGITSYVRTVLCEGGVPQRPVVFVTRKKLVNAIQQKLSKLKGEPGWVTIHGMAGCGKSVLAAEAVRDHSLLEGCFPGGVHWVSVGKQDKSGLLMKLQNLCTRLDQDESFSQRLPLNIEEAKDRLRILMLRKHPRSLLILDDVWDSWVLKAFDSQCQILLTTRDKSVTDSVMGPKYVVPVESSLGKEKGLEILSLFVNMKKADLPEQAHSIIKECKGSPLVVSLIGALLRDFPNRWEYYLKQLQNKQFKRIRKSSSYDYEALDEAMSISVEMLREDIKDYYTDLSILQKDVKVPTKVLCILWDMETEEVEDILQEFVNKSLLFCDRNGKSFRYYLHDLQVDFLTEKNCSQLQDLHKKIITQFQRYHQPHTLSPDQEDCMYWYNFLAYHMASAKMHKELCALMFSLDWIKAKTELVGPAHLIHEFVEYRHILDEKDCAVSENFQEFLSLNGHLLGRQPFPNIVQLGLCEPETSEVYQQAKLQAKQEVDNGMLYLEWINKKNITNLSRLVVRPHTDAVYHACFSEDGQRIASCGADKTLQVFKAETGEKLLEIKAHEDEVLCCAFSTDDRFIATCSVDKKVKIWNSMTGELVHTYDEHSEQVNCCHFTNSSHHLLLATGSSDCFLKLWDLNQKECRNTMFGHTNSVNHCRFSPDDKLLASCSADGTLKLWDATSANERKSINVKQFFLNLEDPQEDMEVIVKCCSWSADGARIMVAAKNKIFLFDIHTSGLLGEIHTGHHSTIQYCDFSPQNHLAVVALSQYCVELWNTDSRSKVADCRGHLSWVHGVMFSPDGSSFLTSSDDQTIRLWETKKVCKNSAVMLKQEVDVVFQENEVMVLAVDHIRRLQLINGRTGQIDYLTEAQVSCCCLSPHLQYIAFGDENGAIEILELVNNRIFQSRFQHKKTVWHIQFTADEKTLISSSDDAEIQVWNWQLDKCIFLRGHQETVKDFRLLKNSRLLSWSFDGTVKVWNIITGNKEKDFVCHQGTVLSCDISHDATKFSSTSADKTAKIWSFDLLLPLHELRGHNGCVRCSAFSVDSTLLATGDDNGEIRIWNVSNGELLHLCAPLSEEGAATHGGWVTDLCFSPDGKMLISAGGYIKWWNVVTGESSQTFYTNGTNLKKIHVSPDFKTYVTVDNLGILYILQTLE

[8] = reduction of Shn3 3'UTR-driven luciferase in osteoblasts – cell-based, Clone20 osteoblasts, firefly luciferase, cherry-picked, dose response (AID 624132); assay type: functional;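 note: firefly luciferase luminescence from reporter carrying the Shn3 3'UTR in osteoblasts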
[9] = non-specific 3'UTR reporter inhibition in Clone20-Shn3RL – cell-based, Renilla luciferase, cherry-picked, counter-screen for Shn3 inhibitor project, dose response (AID 624133); assay type: functional
Coagulation factor XII = molecular target: T3, Coagulation factor XII (Homo sapiens, UniProt P00748); assay: activated coagulation factor XII inhibitor potency, concentration-effect curve, cell-free (AID 716); assay type: functional
T3 sequence (P00748 whole entry): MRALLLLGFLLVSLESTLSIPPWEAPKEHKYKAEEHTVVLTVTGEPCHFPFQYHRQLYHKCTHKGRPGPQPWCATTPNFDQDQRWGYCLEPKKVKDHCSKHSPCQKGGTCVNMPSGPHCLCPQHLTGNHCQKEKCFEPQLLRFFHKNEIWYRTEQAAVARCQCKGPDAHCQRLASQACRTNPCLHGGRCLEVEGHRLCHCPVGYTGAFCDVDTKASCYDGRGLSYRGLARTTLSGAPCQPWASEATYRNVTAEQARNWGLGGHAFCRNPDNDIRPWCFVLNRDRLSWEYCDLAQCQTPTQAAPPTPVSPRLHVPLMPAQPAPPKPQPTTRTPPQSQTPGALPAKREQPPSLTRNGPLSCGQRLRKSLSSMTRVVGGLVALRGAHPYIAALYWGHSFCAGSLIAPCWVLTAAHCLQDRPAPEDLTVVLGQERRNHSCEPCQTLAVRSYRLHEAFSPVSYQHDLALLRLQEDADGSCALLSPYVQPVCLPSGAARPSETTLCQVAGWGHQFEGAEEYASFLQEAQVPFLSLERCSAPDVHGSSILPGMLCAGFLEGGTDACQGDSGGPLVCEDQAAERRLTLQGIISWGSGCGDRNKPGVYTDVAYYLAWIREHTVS

Cytochrome P450 2D6 = Cytochrome P450 2D6 (Homo sapiens, UniProt P10635);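 note: CYP2D6 member of a cytochrome P450 panel assay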
Cytochrome P450 3A4 = Cytochrome P450 3A4 (Homo sapiens, UniProt P08684);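 note: CYP3A4 tested as one member of a cytochrome P450 panel screen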
HEK293 [10] = assay: inhibition of NOD1-driven NF-kB reporter – cell-based, luminescence, uHTS, primary screen (AID 1578); assay type: functional; details: Homo sapiens
HEK293 [11] = assay: cells; assay type: functional, cell-based; details: Homo sapiens
HEK293 [12] = assay: cells; assay type: functional, cell-based; details: Homo sapiens; remark: listed apart in the source
[13] = molecular target: Nucleotide-binding oligomerization domain-containing protein 2 (Homo sapiens, UniProt Q9HC29); assay: inhibition of NOD2-driven NF-kB reporter – cell-based, luminescence, uHTS, HEK293 (AID 1566); assay type: functional
HEK293 [14] = assay: NOD2 signaling inhibitors in MDP-stimulated cells, cell-based, uHTS, luminescence (AID 2001); assay type: functional; details: Homo sapiens
HEK293 [15] = assay: cells; assay type: functional, cell-based; details: Homo sapiens; remark: listed apart in the source
Beta-galactosidase = Beta-galactosidase (Escherichia coli, UniProt Q8VNN2); assay: detection-enzyme interference by beta-gal modulators – biochemical, E. coli enzyme, set 3, artefact control for CCR6 antagonist project, dose response (AID 504712); assay type: functional
[16] = molecular target: Voltage-dependent T-type calcium channel subunit alpha-1H (Homo sapiens, UniProt O95180); assay type: functional;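 note: channel activity triggered by adding a high calcium stimulation buffer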
Escherichia coli [17] = assay: microbe, parasite or virus in culture
Escherichia coli [18] = assay: microbe, parasite or virus in culture; remark: listed apart in the source
[19] = NIH-3T3 fibroblast cytotoxicity, dose response, cytotoxicity control, cell-based, fluorescence, Alamar Blue, secondary assay (AID 2327); assay type: functional;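 note: NIH-3T3 mouse fibroblasts cultured with fluconazole at 8 µg/mL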
[20] = fluconazole-exposed Candida albicans growth modulators – fluorescence, retest, confirmation (AID 2467); assay type: functional, cell-based
[21] = Trypanosoma cruzi growth suppression in host cells – NIH3T3 host cells, beta-gal luminescence, confirmation (AID 2044); assay type: functional, cell-based;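 note: intracellular parasites grown in NIH/3T3 mouse fibroblasts as host cells; luminescent beta-galactosidase reporter signal from transgenic T. cruzi replicating inside host cells; inhibitors lower the luminescence signal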
[22] = viability of PTEN-deleted HCT116 cells – cell-based, HCT116 PTEN knockout, dose response (AID 1047); assay type: functional;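 note: HCT116 colon tumor cells with PTEN knocked out; cells exposed to compound for 60 hours before readout; potency for loss of cell viability measured by luminescence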
[23] = NIH3T3 cell viability loss – ATP luminescence, mouse fibroblasts, counter-screen, dose response (AID 2010); assay type: functional, cell-based;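 note: cells exposed to compound for about 90 hours before reading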
[24] = viability of HCT116 lacking mutant beta-catenin – cell-based, human colon tumor, dose response (AID 1045); assay type: functional;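 note: HCT116 colon tumor cells with beta catenin knocked out; cells exposed to compound for 60 hours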
Bcl-2-related protein A1 = molecular target: T4, Bcl-2-related protein A1 (Mus musculus, UniProt Q07440); assay type: functional;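 note: confirmatory dose–response counterscreen on Bfl-1, used to check hits from a UBC13 polyubiquitin inhibitor campaign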
T4 sequence (Q07440 whole entry): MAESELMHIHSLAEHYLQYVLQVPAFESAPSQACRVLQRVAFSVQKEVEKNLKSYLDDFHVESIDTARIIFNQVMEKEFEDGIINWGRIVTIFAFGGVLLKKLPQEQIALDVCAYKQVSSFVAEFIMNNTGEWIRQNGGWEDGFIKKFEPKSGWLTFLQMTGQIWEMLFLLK

[25] = molecular target: T5, Ubiquitin-conjugating enzyme E2 N (Homo sapiens, UniProt P61088); assay type: functional
T5 sequence (P61088 whole entry): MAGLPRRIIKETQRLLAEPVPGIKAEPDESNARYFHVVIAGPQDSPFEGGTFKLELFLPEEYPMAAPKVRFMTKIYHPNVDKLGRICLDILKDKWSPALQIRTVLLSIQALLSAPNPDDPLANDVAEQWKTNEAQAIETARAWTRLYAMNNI

[26] = molecular target: T5, Ubiquitin-conjugating enzyme E2 N; assay type: functional; remark: listed apart in the source

Chain of Cytochrome P450 3A4 (P08684 whole entry): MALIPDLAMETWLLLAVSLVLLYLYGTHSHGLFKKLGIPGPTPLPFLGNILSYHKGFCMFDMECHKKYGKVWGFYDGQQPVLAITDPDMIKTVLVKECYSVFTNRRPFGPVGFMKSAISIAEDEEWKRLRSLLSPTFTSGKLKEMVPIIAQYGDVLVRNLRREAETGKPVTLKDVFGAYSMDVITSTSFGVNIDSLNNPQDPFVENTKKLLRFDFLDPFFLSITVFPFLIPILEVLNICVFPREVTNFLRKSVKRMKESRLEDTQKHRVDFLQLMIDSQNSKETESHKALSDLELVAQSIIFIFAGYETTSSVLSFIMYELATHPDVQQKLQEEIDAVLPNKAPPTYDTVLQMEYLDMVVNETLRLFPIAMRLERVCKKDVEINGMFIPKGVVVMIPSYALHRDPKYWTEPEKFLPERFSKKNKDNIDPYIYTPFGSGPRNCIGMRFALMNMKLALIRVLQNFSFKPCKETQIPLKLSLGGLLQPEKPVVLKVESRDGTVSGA
Chain of Peroxisome proliferator-activated receptor gamma/Nuclear receptor coactivator 2 (P37231 whole entry): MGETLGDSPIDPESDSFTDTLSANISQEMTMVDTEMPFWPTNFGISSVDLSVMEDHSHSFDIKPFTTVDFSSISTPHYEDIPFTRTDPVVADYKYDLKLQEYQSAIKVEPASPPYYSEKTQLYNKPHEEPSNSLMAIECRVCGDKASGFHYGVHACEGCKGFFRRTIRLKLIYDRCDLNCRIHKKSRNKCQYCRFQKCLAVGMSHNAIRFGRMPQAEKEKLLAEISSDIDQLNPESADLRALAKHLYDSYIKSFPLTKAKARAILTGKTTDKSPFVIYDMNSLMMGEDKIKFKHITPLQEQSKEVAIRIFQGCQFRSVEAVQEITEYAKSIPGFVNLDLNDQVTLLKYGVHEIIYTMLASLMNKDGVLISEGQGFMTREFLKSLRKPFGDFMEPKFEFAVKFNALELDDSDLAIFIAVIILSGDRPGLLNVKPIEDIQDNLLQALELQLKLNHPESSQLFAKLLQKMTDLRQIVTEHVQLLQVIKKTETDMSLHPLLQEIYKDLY
Chain of Peroxisome proliferator-activated receptor gamma/Nuclear receptor coactivator 2 (Q15596 whole entry, further chain): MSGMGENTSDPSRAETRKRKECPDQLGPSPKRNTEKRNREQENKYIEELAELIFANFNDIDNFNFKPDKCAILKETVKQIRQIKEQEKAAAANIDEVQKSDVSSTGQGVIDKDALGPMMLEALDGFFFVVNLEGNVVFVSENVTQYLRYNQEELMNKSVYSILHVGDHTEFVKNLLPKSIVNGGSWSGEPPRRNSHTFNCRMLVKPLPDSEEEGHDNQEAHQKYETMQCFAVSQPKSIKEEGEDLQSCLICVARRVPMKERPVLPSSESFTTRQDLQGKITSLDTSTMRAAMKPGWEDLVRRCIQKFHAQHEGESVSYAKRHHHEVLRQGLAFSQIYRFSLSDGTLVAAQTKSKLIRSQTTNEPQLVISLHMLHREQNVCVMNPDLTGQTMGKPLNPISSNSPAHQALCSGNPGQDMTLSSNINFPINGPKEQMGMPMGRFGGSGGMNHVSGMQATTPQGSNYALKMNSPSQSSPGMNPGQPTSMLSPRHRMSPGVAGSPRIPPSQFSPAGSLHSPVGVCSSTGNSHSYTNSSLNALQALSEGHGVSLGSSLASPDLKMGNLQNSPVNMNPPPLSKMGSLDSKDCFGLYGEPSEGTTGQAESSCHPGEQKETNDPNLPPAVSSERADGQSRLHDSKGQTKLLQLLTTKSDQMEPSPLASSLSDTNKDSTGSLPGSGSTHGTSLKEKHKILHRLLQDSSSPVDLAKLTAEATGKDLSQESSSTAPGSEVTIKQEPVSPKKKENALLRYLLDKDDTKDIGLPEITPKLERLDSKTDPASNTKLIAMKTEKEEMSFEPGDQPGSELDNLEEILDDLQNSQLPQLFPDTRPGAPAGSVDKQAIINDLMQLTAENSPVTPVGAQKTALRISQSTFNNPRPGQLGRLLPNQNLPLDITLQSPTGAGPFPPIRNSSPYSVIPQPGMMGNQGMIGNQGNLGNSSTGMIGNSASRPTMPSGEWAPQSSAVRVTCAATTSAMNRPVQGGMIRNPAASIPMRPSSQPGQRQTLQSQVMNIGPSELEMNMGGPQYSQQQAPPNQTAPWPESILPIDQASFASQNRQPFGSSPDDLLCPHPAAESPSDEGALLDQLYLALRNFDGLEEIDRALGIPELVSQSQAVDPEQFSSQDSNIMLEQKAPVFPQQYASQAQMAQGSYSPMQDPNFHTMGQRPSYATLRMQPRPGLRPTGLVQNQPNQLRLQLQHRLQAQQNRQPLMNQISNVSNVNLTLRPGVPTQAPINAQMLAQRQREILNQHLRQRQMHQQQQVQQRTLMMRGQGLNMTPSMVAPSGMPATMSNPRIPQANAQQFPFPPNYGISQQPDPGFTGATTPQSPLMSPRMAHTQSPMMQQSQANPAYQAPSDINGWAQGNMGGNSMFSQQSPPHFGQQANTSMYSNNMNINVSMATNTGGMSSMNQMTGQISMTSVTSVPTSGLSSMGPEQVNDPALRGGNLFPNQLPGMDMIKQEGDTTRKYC
Chain of Peroxisome proliferator-activated receptor gamma/Nuclear receptor coactivator 3 (P37231 whole entry): as the sequence (P37231 whole entry) above
Chain of Peroxisome proliferator-activated receptor gamma/Nuclear receptor coactivator 3 (Q9Y6Q9 whole entry, further chain): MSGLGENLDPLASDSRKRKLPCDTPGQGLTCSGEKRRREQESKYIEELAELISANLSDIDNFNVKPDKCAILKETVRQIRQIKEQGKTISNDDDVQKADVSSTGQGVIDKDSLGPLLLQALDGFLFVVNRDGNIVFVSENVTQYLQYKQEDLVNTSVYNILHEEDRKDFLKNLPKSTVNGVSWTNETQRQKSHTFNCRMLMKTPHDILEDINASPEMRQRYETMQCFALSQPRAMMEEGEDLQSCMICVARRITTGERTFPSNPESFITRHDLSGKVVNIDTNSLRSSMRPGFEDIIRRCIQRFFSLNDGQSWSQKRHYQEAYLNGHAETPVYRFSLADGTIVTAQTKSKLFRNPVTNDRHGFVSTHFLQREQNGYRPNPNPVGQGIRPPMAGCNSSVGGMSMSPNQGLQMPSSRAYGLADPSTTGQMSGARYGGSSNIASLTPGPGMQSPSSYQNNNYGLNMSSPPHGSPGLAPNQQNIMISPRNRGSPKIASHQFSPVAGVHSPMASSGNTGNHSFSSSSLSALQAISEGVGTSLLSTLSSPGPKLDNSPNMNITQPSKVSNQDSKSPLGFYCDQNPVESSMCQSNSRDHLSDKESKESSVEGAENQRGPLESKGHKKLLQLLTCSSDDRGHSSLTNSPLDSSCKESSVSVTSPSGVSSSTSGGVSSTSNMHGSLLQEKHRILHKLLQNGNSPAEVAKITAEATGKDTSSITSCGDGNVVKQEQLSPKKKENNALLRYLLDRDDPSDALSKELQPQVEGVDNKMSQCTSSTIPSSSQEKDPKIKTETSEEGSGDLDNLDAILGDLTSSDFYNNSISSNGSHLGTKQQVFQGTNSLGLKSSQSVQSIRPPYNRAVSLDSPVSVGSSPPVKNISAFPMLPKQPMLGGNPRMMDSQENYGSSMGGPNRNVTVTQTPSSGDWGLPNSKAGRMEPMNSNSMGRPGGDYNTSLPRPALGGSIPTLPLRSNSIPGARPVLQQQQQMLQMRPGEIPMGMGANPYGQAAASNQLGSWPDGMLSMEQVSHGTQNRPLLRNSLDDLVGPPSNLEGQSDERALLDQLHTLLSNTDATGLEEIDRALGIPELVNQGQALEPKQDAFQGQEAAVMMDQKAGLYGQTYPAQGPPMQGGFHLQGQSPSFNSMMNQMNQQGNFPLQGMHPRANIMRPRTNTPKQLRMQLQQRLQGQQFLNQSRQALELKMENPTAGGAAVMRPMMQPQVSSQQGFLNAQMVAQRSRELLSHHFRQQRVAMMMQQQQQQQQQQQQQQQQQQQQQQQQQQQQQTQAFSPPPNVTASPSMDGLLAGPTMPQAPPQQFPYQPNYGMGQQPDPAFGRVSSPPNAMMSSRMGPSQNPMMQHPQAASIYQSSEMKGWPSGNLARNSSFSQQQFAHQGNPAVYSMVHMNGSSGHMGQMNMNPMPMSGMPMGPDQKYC
Chain of Alkaline phosphatase, placental type (P05187 whole entry): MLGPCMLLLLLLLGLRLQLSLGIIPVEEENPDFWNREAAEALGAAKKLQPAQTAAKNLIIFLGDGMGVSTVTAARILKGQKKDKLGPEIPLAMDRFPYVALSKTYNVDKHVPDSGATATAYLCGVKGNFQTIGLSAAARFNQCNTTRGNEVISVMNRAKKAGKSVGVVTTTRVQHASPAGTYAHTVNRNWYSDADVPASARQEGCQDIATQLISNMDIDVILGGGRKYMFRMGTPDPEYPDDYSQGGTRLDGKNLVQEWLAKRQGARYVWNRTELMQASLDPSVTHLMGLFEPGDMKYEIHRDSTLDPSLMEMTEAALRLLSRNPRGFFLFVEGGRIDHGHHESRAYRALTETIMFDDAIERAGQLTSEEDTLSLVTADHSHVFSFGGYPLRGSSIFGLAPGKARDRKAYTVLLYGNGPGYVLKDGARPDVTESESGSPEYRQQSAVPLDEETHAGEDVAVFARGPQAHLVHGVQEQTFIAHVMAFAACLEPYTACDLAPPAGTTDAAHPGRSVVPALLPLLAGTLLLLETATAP

SMILES: Cc1cc(C)c(C#N)c(SCC(=O)c2ccc(O)c(O)c2)n1
IC50 [1]: 1.56 µM (active)
IC50 [2]: 6.71 µM (active)

SMILES: COc1ccc(-c2nnc3oc(O)c(CCO)c(C)c2-3)cc1
IC50 [3]: > 100 µM (not active)
IC50 [1]: > 100 µM (inactive)
IC50 [2]: > 100 µM (inactive)

SMILES: CS(=O)(=O)c1nc(-c2ccc(Br)cc2)cc(-c2ccccc2)c1C#N
EC50 [4]: 7.5 µM (active)
EC50 [5]: > 79.4 µM (not active)
EC50 [6]: 8.09 µM (active)
IC50 [7]: 2.07 µM (active)
AC50 [8]: 4.72 µM (active)
AC50 [9]: 6.77 µM (active)

SMILES: Cc1ccccc1-c1ccc(/C=N/c2c(C)n(C)n(-c3ccccc3)c2=O)o1
EC50 [4]: > 79.4 µM (inactive)
EC50 [5]: > 79.4 µM (not active)
EC50 [6]: 47.6 µM (not active)

SMILES: COc1cc2oc(=O)c(Br)c(C)c2c(OC)c1OC
EC50 [4]: 13 µM (inactive)
EC50 [5]: > 79.4 µM (not active)
EC50 [6]: 10 µM (not active)

SMILES: C=CCNS(=O)(=O)c1cccc2cc(C(=O)O)c(O)cc12
AC50 (Cytochrome P450 2D6): 22.4 µM (inconclusive)
AC50 (Cytochrome P450 3A4): inconclusive

SMILES: CC(/C=C/c1ccccc1)=N/NC(=O)c1cccc(Br)c1
EC50 (HEK293 [10]): 3.65 µM (active)
IC50 (HEK293 [11]): > 20 µM (inactive)
IC50 (HEK293 [12]): > 20 µM (inactive)
EC50 [13]: > 20 µM (inactive)
IC50 (HEK293 [14]): 2.7 µM (active)
IC50 (HEK293 [15]): > 20 µM (inactive)
IC50 (Beta-galactosidase): > 66.6 µM (inactive)

SMILES: CCCCOC(=S)NC(=O)c1sc2ccccc2c1Cl
AC50 (Cytochrome P450 3A4): inconclusive

SMILES: CC1CCN(S(=O)(=O)c2cccc(C(=O)NCc3cccs3)c2)CC1
EC50 [16]: 2.96 µM (active)
AC50 (Escherichia coli [17]): 40.9 µM (active)
AC50 (Escherichia coli [18]): 106 µM (active)

SMILES: N=C(N)N/N=C/c1ccc(OCc2ccc(Cl)cc2)cc1
EC50 [19]: > 150 µM (inactive)
EC50 [20]: > 38 µM (not active)
EC50 [21]: 1.93 µM (active)
EC50 [22]: 3.74 µM (active)
EC50 [23]: > 60 µM (inconclusive)
EC50 [24]: 3.25 µM (active)
IC50 (Bcl-2-related protein A1): > 20 µM (inactive)
IC50 [25]: 13 µM (active)
IC50 (Beta-galactosidase): > 66.6 µM (inactive)
IC50 [26]: 12.4 µM (active)

SMILES: Nc1nc(Cc2cccc(Br)c2)n(-c2ccccc2)n1
IC50 [3]: > 100 µM (not active)
IC50 [1]: > 100 µM (inactive)
IC50 [2]: > 100 µM (inactive)

Next, values leading:

IC50 (Coagulation factor XII): > 50 µM (inactive)
SMILES: CCN(CC)S(=O)(=O)c1ccc(C(=O)NCC(c2cccs2)N2CCOCC2)cc1 (stereo not given)

IC50 (Coagulation factor XII): > 50 µM (inactive)
SMILES: C=CCn1c(COc2ccc(CC)cc2)nnc1SCC(=O)N(C)C1CCS(=O)(=O)C1 (stereo not given)

IC50 (Coagulation factor XII): > 50 µM (inactive)
SMILES: CCOC(=O)c1sc2ncnc(N3CCN(C(=O)OCC)CC3)c2c1C

AC50 (Cytochrome P450 3A4): inconclusive
SMILES: OC[C@@H]1O[C@@H](n2cnc3cncnc32)[C@@H](O)[C@H]1O

IC50 (Bcl-2-related protein A1): > 20 µM (inactive)
IC50 [25]: 14.2 µM (active)
IC50 [26]: 6.38 µM (active)
SMILES: CCCN1CCN(C(=O)C2CCN(c3ncnc4c3nc3n4CCCCC3)CC2)CC1
